The results in this text go back to patent US20090306122A1, “SUBSTITUTED TETRAHYDROPYRROLOQUINOLINE DERIVATIVES AS KINASE MODULATORS, ESPECIALLY OF TYROSINE AND RAF KINASES” (priority 2005, published 2009).

By IC50 is commonly meant the concentration at which inhibition is half-maximal. High values mean weaker potency, low ones greater potency.

The target in this experiment is T1, IGF1-R kinase (Homo sapiens, UniProt P08069).
T1 construct: purchased ProQinase
T1 sequence (P08069 31-1367): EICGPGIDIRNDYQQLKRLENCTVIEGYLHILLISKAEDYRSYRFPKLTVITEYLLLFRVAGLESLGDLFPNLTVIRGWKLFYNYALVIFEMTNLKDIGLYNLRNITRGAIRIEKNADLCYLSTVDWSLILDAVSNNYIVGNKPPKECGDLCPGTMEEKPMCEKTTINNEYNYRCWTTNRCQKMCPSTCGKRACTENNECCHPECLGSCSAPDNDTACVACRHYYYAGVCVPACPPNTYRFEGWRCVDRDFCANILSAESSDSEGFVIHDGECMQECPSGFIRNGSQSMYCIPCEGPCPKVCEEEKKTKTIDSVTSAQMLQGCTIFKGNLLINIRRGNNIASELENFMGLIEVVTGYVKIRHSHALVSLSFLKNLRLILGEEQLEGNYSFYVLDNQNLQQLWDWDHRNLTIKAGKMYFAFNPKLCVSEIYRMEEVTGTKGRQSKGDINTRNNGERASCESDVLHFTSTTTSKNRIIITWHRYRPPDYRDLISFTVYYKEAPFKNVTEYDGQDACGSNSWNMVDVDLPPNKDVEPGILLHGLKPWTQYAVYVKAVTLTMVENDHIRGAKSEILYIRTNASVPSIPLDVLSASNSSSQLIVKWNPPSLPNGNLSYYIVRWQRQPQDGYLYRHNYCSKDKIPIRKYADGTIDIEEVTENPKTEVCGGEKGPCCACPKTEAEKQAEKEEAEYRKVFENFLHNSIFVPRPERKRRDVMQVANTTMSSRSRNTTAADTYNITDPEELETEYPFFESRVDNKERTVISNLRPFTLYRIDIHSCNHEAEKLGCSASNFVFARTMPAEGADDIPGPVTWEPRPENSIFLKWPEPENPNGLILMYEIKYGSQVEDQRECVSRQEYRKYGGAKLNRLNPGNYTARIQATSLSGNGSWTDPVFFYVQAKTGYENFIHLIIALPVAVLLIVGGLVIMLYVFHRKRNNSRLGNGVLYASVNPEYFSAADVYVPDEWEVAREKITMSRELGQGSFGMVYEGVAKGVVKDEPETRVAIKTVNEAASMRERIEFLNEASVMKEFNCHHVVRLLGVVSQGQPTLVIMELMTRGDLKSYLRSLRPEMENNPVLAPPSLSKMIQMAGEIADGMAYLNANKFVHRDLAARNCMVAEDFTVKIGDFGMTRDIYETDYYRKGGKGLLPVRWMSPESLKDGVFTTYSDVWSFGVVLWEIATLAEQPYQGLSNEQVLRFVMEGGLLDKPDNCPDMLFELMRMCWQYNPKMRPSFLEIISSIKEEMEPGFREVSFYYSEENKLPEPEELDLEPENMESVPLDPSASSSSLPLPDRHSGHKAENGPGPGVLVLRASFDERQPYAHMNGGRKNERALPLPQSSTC
Kind of experiment: Assay for the determination of IGF1-R kinase inhibition (AlphaScreen). Format: biochemical. As to conditions: ATP 1 μM, biotinylated poly Glu, Tyr 4:1. From the text: Assay for the Determination of IGF1-R Kinase Inhibition
Lit.: G. Warner et al., Current Medicinal Chemistry, 2004, 11, 721-730
Use is made of AlphaScreen technology [(Amplified Luminescent Proximity Homogenous Assay), PerkinElmer], which is based on the amplification of a signal generated on interaction of so-called donor and acceptor beads. The convergence of two molecules can be measured very sensitively via this system.
The AlphaScreen test is based on traditional kinase tests, with the exception that the kinase activity is detected non-radioactively.
The binding of molecules which have been captured on the beads results in energy transfer from one bead to the other, which ultimately results in a luminescence/fluorescence signal.
In the absence of IGF1-R kinase activity, no signal is detected.
The kinase phosphorylates the biotinylated polypeptide (poly Glu, Tyr, 4:1) on the tyrosine.
The phosphorylated biotinylated peptide binds to streptavidin donor beads (biotin-streptavidin binding). The anti-phospho-tyrosine P-Tyr-100 antibody bound to the acceptor beads binds to phospho-tyrosine via the antigen binding site, giving a complex of:
Donor bead-streptavidin <->biotin-phosphopeptide (P substrate)<->antiphospho antibody-acceptor bead
If light having a wavelength of 680 nm is incident, the donor beads produce singlet oxygen, which, on adequate spatial proximity of the acceptor beads (only on formation of complex), causes the latter to emit at 520/620 nm.
Test procedure: the test is carried out in a 384-well OptiPlate™-384 Art.: 6007290 from Perkin Elmer
IGF1-R, enzyme from “ProQinase” • IGF1-R, 20 μl • Final concentration: 0.5 ng of kinase/well • (in 50 mM MOPS assay buffer pH 7.0 (comprising 0.20 mM • EDTA; 5.0 mM MnCl2; 10 mM MgCl2; 0.002% of BriJ; 0.002% of 2-mercaptoethanol and 0.1% of BSA) • +Test substance or standard sample, 3.0 μl • are pipetted into MTP well, shaken briefly and pre-incubated.
Pre-incubation: 30 minutes at RT (with continuous gentle shaking)
ATP/biotinylated substrate mix, 10 μl is added • ATP adenosine 5′-triphosphate, disodium salt (Calbiochem)/biotinylated poly Glu, Tyr, 4:1 (from Perkin Elmer) • Final concentration of ATP: 1 μM • Final concentration of biotinylated poly Glu, Tyr, 4:1:1 nM • Shake briefly and incubate. • Incubation: 45 minutes at RT (with continuous gentle shaking) 3. • Beads, P-Tyr-100 acceptor beads; antiphosphotyrosine (P-Tyr-100) acceptor beads • and simultaneously Streptavidin donor beads, 20 μl, are pipetted into well in a darkened room and shaken briefly. • Final concentration: 5 μg/ml of beads • Acceptor/donor beads are prepared shortly in advance in AlphaScreen detection/stop buffer (25 mM HEPES buffer comprising 100 mM NaCl, 0.1% of BSA, 100 mM EDTA). • This is followed by • Incubation: 20 hours at RT in the dark • Measurement: on the fusion a screen in Alpha programme 1 sec.
A general note: Alpha assays give light when donor and acceptor beads are brought close together.
`COc1cccc(C2CC(N3CCCC3=O)c3cc(F)cc4c3N2CC4)c1` (centres unmarked) [Compound 1, 6-(2-oxopyrrolidin-1-yl)-8-fluoro-4-(3-methoxyphenyl)-1,2,5,6-tetrahydro-4H-pyrrolo[3,2,1-ij]quinoline]: the IC50 came out at 29000 nM.
The value for `O=C1CCCN1C1CC(c2cccc(Cl)c2Cl)N2CCc3cccc1c32` (centres unmarked) [Compound 2] was 5000 nM.
Compound `O=C1CCCN1C1CC(c2cccc(Br)c2)N2CCc3cccc1c32` (centres unmarked) [Compound 3] gave a half-inhibitory concentration (IC50) of 1300 nM.
Compound `O=C1CCCN1C1CC(c2ccc(Cl)cc2F)N2CCc3cccc1c32` (centres unmarked) [Compound 4] gave an IC50 of 1500 nM. The IC50 values of the last two compounds are within 1.5-fold of each other.
For `CCc1ccc(C2CC(N3CCCC3=O)c3cccc4c3N2CC4)cc1` (centres unmarked) [Compound 5], half-maximal inhibition (IC50) required 2200 nM.
`O=C1CCCN1C1CC(c2cccc(Cl)c2)N2CCc3cccc1c32` (centres unmarked) [Compound 6] returned an IC50 of 2900 nM.
For `O=C1CCCN1C1CC(c2cccc(C(F)(F)F)c2)N2CCc3cccc1c32` (centres unmarked) [Compound 7], the IC50 was found to be 4500 nM.
The value for `CC(C)(C)c1ccc(C2CC(N3CCCC3=O)c3cccc4c3N2CC4)cc1` (centres unmarked) [Compound 8] was 1600 nM; that for `CC(C)c1ccc(C2CC(N3CCCC3=O)c3cccc4c3N2CC4)cc1` (centres unmarked) [Compound 9] was 2000 nM.
Regarding `Cc1cccc(C2CC(N3CCCC3=O)c3cccc4c3N2CC4)c1` (centres unmarked) [Compound 10], the IC50 worked out at 3600 nM.
The value for `CCCc1ccc(C2CC(N3CCCC3=O)c3cccc4c3N2CC4)cc1` (centres unmarked) [Compound 11] was 3500 nM.
Consider `O=C1CCCN1C1CC(c2ccccc2Br)N2CCc3cccc1c32` (centres unmarked) [Compound 12], for which the IC50 turned out to be 2500 nM.
`O=C1CCCN1C1CC(c2cc(C(F)(F)F)cc(C(F)(F)F)c2)N2CCc3cccc1c32` (centres unmarked) [Compound 13] registered an IC50 of 5690 nM.
As for `O=C1CCCN1C1CC(c2ccc(Cl)c([N+](=O)[O-])c2)N2CCc3cccc1c32` (centres unmarked) [Compound 14], the 50% inhibitory concentration (IC50) came to 6000 nM.
The value for `O=C1CCCN1C1CC(c2ccccc2F)N2CCc3cccc1c32` (centres unmarked) [Compound 15] was 1500 nM; that for `O=C1CCCN1C1CC(c2ccccc2Cl)N2CCc3cccc1c32` (centres unmarked) [Compound 16] was 3100 nM.
On to `Cc1ccc(C2CC(N3CCCC3=O)c3cccc4c3N2CC4)cc1` (centres unmarked) [Compound 17], for which the half-maximal inhibitory concentration (IC50) was 2600 nM. The IC50 values of the last two compounds are within 1.5-fold of each other.
Regarding `O=C1CCCN1C1CC(c2ccc(Br)cc2F)N2CCc3cccc1c32` (centres unmarked) [Compound 18], the IC50 was found to be 2100 nM.
As to `Cc1ccc(C2CC(N3CCCC3=O)c3cccc4c3N2CC4)cc1[N+](=O)[O-]` (centres unmarked) [Compound 19], half-maximal inhibition (IC50) required 3300 nM.
The value for `O=C1CCCN1C1CC(c2cc(F)cc(C(F)(F)F)c2)N2CCc3cccc1c32` (centres unmarked) [Compound 20] was 10000 nM; that for `CC(C)(C)OC(=O)Oc1ccc(C2CC(N3CCCC3=O)c3cccc4c3N2CC4)cc1` (centres unmarked) [Compound 21] was 1800 nM; that for `O=C1CCCN1C1CC(c2ncc(C(F)(F)F)cc2Cl)N2CCc3cccc1c32` (centres unmarked) [Compound 22] was 1700 nM.
Compound `O=C1CCCN1C1CC(c2ccc(Cl)cc2Cl)N2CCc3cccc1c32` (centres unmarked) [Compound 23] yielded a half-maximal inhibitory concentration (IC50) of 4000 nM.
Take `O=C1CCCN1C1CC(c2cc(F)cc(F)c2)N2CCc3cccc1c32` (centres unmarked) [Compound 24]: the IC50 was determined as 3300 nM. The IC50 values of the last two compounds are within 1.5-fold of each other.
Regarding `COc1cccc(C2CC(N3CCCC3=O)c3cccc4c3N2CC4)c1OC` (centres unmarked) [Compound 25], the IC50 was found to be 190 nM.
In the case of `CCOc1ccccc1C1CC(N2CCCC2=O)c2cccc3c2N1CC3` (centres unmarked) [Compound 26], the concentration for half-maximal inhibition (IC50) was 1400 nM.
The same measure for `COc1ccc(OC)c(C2CC(N3CCCC3=O)c3cccc4c3N2CC4)c1` (centres unmarked) [Compound 27]: 2100 nM.
The value for `COc1cccc(OC)c1C1CC(N2CCCC2=O)c2cccc3c2N1CC3` (centres unmarked) [Compound 28] was 2100 nM; that for `O=C1CCCN1C1CC(c2ccccc2OCc2ccccc2)N2CCc3cccc1c32` (centres unmarked) [Compound 29] was 1100 nM; that for `O=C1CCCN1C1CC(c2cccc(OCc3ccccc3)c2)N2CCc3cccc1c32` (centres unmarked) [Compound 30] was 2800 nM.
The value for `COc1cccc(C2CC(N3CCCC3=O)c3cccc4c3N2CC4)c1` (centres unmarked) [Compound 31] was 2000 nM; that for `COc1ccccc1C1CC(N2CCCC2=O)c2cccc3c2N1CC3` (centres unmarked) [Compound 32] was 6000 nM; that for `COc1ccc(Oc2cccc(C3CC(N4CCCC4=O)c4cccc5c4N3CC5)c2)cc1` (centres unmarked) [Compound 33] was 2100 nM.
Consider `O=C1CCCN1C1CC(c2cccc3c2OCO3)N2CCc3cccc1c32` (centres unmarked) [Compound 34], for which the IC50 stood at 4800 nM.
As to `CCOc1ccc(C2CC(N3CCCC3=O)c3cccc4c3N2CC4)c(OCC)c1C` (centres unmarked) [Compound 35], the half-inhibitory concentration (IC50) amounted to 3500 nM. The IC50 values of the last two compounds are within 1.5-fold of each other.
As to `COc1cc(C2CC(N3CCCC3=O)c3cccc4c3N2CC4)ccc1OC(=O)OC(C)(C)C` (centres unmarked) [Compound 36], the IC50 is 930 nM. This IC50 lies about 3.8-fold lower than the previous one.
`O=C1CCCN1C1CC(c2ccc(-c3ccccc3[N+](=O)[O-])o2)N2CCc3cccc1c32` (centres unmarked) [Compound 37]: half-maximal inhibition (IC50) was put at 260 nM. Compared with the last compound, the IC50 is about 3.6-fold lower.
The same measure for `COc1cccc(C2CC(N(C)C(C)=O)c3cccc4c3N2CC4)c1` (centres unmarked) [Compound 38]: 2100 nM; for `O=C1CCCN1C1CC(c2cccc(OCc3ccccc3)c2)N2CCc3cc(F)cc1c32` (centres unmarked) [Compound 40]: 2700 nM.
The same measure for `O=C1CCCN1C1CC(c2ccccc2Cl)N2CCc3cc(F)cc1c32` (centres unmarked) [Compound 41]: 4500 nM.
The value for `O=C1CCCN1C1CC(c2cccc(-c3ccc(F)cc3)c2)N2CCc3cccc1c32` (centres unmarked) [Compound 42] was 5500 nM; that for `O=C1CCCN1C1CC(c2cccc(-c3ccc(C(F)(F)F)cc3)c2)N2CCc3cccc1c32` (centres unmarked) [Compound 43] was 7400 nM.
In the case of `O=C1CCCN1C1CC(c2cccc(-c3cccc(OC(F)(F)F)c3)c2)N2CCc3cccc1c32` (centres unmarked) [Compound 44], 21000 nM corresponded to half-maximal inhibition (IC50).
The same measure for `O=C(O)c1ccc(C2CC(N3CCCC3=O)c3cccc4c3N2CC4)cc1` (centres unmarked) [Compound 45]: 14000 nM.
